According to patent publication US10654828B2 (NOVARTIS AG, priority 2017, dated 2020):
Read-outs that look alike come from different tables or passages of the source.

What was measured:
[1] = system: FoxO3a; assay: FoxO3a inhibition: GFP-FoxO3a nuclear to cytoplasmic translocation reporter assay; type: cell-based; conditions: U2OS GFP-FoxO3a H212R cells, serum starved overnight, compound 30 minutes, ratio of nuclear to cytosolic GFP intensity, DMSO control 0%, read-out: FoxO AC50
Experimental: (§1) Phosphorylation of AKT on S473 and FoxO3a nuclear to cytoplasmic translocation were used as readouts of PI3K/Akt/mTOR pathway activation downstream of growth factor signaling.
(§2) Reporter cell line. U2OS GFP-FoxO3a H212R reporter cell line was established by transducing U2OS cells with the retroviral plasmid pLEGFP-C1 containing FoxO3a H212R transgene and selecting for G418 resistant clones.
(§3) Reporter assay. U2OS GFP-FoxO3a H212R cells were plated in 384-well plates at 4000 cells per well in 30 microliters of McCoy's 5 A medium containing 10% FBS. On day 1 the cells were washed with serum free medium and serum starved overnight. On day 2 the cells were treated with different doses of the compounds for 30 minutes, fixed with 4% Paraformaldehyde for 1 hour and stained with Phospho-AKT (Ser473) antibody (Cell Signaling Technology, catalog #4060) overnight at 4 degrees Celsius. After nuclei staining with Hoechst 33342 (Life Technologies, catalog # H3570) the plates were imaged with InCell 2000 (GE Healthcare Bio-Sciences). FoxO3a inhibition activity is calculated as the ratio of nuclear to cytosolic GFP intensity in percent. AKT activation is measured as the total cellular intensity of Phospho-AKT antibody staining in percent. DMSO control is set as 0% activity.

[2] = system: AKT; assay: AKT activation: Phospho-AKT (Ser473) antibody staining in reporter cells; type: cell-based; conditions: U2OS GFP-FoxO3a H212R cells, serum starved overnight, compound 30 minutes, total cellular intensity of Phospho-AKT (Ser473) staining, DMSO control 0%
Experimental: as §1, §2, §3

| Compound | AC50 ([1]; Homo sapiens, U2OS, 0.5 h) [nM] | AC50 ([2]; Homo sapiens, U2OS, 0.5 h) [nM] | AC50 [1] [nM] | AC50 [2] [nM] |
| --- | --- | --- | --- | --- |
| Cc1cc(C(N)=O)nn1-c1ccc2c(ccn2Cc2ccc(C3CCN(C)C3)cc2)c1 (racemic) [Example 2-1, rac-5-methyl-1-(1-(4-(1-methylpyrrolidin-3-yl)benzyl)-1H-indol-5-yl)-1H-pyrazole-3-carboxamide] | 733 | 2510 | – | – |
| Cc1cc(C(N)=O)nn1-c1ccc2c(ccn2Cc2ccc(C3=C[C@H]4CNC[C@H]4C3)cc2)c1 (racemic) [Example 24, (cis)-1-(1-(4-(1,2,3,3a,4,6a-hexahydrocyclopenta[c]pyrrol-5-yl)benzyl)-1H-indol-5-yl)-5-methyl-1H-pyrazole-3-carboxamide] | 381 | 1200 | – | – |
| Cc1cc(C(N)=O)nn1-c1ccc2c(ccn2Cc2ccc(C3=C[C@H]4CN(C)C[C@H]4C3)cc2)c1 (racemic) [Example 25, (cis)-5-methyl-1-(1-(4-(2-methyl-1,2,3,3a,4,6a-hexahydrocyclopenta[c]pyrrol-5-yl)benzyl)-1H-indol-5-yl)-1H-pyrazole-3-carboxamide] | 215 | 1120 | – | – |
| Cc1cc(C(N)=O)nn1-c1ccc2c(ccn2Cc2ccc(CC3CCN(C)C3)cc2)c1 (racemic) [Example 31, rac-5-methyl-1-(1-(4-((1-methylpyrrolidin-3-yl)methyl)benzyl)-1H-indol-5-yl)-1H-pyrazole-3-carboxamide] | 350 | 747 | – | – |
| Cc1cc(C(N)=O)nn1-c1ccc2c(ccn2Cc2ccc(C3=CCN4CCCC3C4)cc2)c1 (single isomer, unassigned) [Example 13, 1-(1-(4-(1-azabicyclo[3.3.1]non-3-en-4-yl)benzyl)-1H-indol-5-yl)-5-methyl-1H-pyrazole-3-carboxamide] | 437 | 1530 | – | – |
| Cc1cc(C(N)=O)nn1-c1ccc2c(ccn2Cc2ccc(C3=CCN4CCCC3C4)cc2)c1 (single isomer, unassigned) [Example 14, 1-(1-(4-(1-azabicyclo[3.3.1]non-3-en-4-yl)benzyl)-1H-indol-5-yl)-5-methyl-1H-pyrazole-3-carboxamide] | – | – | 652 | 2100 |
| Cc1cc(C(N)=O)nn1-c1ccc2c(ccn2Cc2ccc(C3CCN(C)CC3(C)C)cc2)c1 (single isomer, unassigned) [Example 16-2, 5-methyl-1-(1-(4-(1,3,3-trimethylpiperidin-4-yl)benzyl)-1H-indol-5-yl)-1H-pyrazole-3-carboxamide] | – | – | 161 | 1220 |
| Cc1cc(C(N)=O)nn1-c1ccc2c(ccn2Cc2ccc(C3CCN(C)CC3(C)C)cc2)c1 (single isomer, unassigned) [Example 16-3, 5-methyl-1-(1-(4-(1,3,3-trimethylpiperidin-4-yl)benzyl)-1H-indol-5-yl)-1H-pyrazole-3-carboxamide] | – | – | 1040 | 3190 |
| Cc1cc(C(N)=O)nn1-c1ccc2c(ccn2Cc2ccc(C3=CCN(C)CC3C)cc2)c1 (single isomer, unassigned) [Example 17-2, 1-(1-(4-(1,3-dimethyl-1,2,3,6-tetrahydropyridin-4-yl)benzyl)-1H-indol-5-yl)-5-methyl-1H-pyrazole-3-carboxamide] | – | – | 47 | 123 |
| Cc1cc(C(N)=O)nn1-c1ccc2c(ccn2Cc2ccc(C3=CCN(C)CC3C)cc2)c1 (single isomer, unassigned) [Example 17-3, 1-(1-(4-(1,3-dimethyl-1,2,3,6-tetrahydropyridin-4-yl)benzyl)-1H-indol-5-yl)-5-methyl-1H-pyrazole-3-carboxamide] | – | – | 251 | 840 |
| Cc1cc(C(N)=O)nn1-c1ccc2c(ccn2Cc2ccc(C3CCCN(C)CC3)cc2)c1 (single isomer, unassigned) [Example 29-1, 5-methyl-1-(1-(4-(1-methylazepan-4-yl)benzyl)-1H-indol-5-yl)-1H-pyrazole-3-carboxamide] | 483 | 1690 | – | – |
| Cc1cc(C(N)=O)nn1-c1ccc2c(ccn2Cc2ccc(C3CCCN(C)CC3)cc2)c1 (single isomer, unassigned) [Example 29-2, 5-methyl-1-(1-(4-(1-methylazepan-4-yl)benzyl)-1H-indol-5-yl)-1H-pyrazole-3-carboxamide] | – | – | 818 | 2100 |
| Cc1cc(C(N)=O)nn1-c1ccc2c(ccn2Cc2ccc(NC3CCN(C)C3)cc2)c1 (single isomer, unassigned) [Example 37-1, 5-Methyl-1-(1-(4-((1-methylpyrrolidin-3-yl)amino)benzyl)-1H-indol-5-yl)-1H-pyrazole-3-carboxamide] | 724 | 4790 | – | – |
| Cc1cc(C(N)=O)nn1-c1ccc2c(ccn2Cc2ccc(NC3CCN(C)C3)cc2)c1 (single isomer, unassigned) [Example 37-2, 5-methyl-1-(1-(4-((1-methylpyrrolidin-3-yl)amino)benzyl)-1H-indol-5-yl)-1H-pyrazole-3-carboxamide] | – | – | 928 | 4080 |
| Cc1cc(C(N)=O)nn1-c1ccc2c(ccn2Cc2ccc(C3=CCN(C)CC3)cc2)c1 [Example 1-1, 5-methyl-1-(1-(4-(1-methyl-1,2,3,6-tetrahydropyridin-4-yl)benzyl)-1H-indol-5-yl)-1H-pyrazole-3-carboxamide] | 53 | 138 | – | – |
| Cc1cc(C(N)=O)nn1-c1ccc2c(ccn2Cc2ccc(-c3ccncc3)cc2)c1 [Example 1-2, 5-methyl-1-(1-(4-(pyridin-4-yl)benzyl)-1H-indol-5-yl)-1H-pyrazole-3-carboxamide] | 102 | – | – | – |
| Cc1cc(C(N)=O)nn1-c1ccc2c(ccn2Cc2ccc(C3=CCOCC3)cc2)c1 [Example 1-3, 1-(1-(4-(3,6-dihydro-2H-pyran-4-yl)benzyl)-1H-indol-5-yl)-5-methyl-1H-pyrazole-3-carboxamide] | 201 | > 10000 | – | – |
| CC(=O)N1CC=C(c2ccc(Cn3ccc4cc(-n5nc(C(N)=O)cc5C)ccc43)cc2)CC1 [Example 1-4, 1-(1-(4-(1-acetyl-1,2,3,6-tetrahydropyridin-4-yl)benzyl)-1H-indol-5-yl)-5-methyl-1H-pyrazole-3-carboxamide] | 121 | 252 | – | – |
| Cc1cc(C(N)=O)nn1-c1ccc2c(ccn2Cc2ccc(-c3ccc(C#N)cc3)cc2)c1 [Example 1-5, 1-(1-((4′-cyano-[1,1′-biphenyl]-4-yl)methyl)-1H-indol-5-yl)-5-methyl-1H-pyrazole-3-carboxamide] | 285 | > 10000 | – | – |
| Cc1cc(C(N)=O)nn1-c1ccc2c(ccn2Cc2ccc(C3CCN(CCCN)CC3)cc2)c1 [Example 8, 1-(1-(4-(1-(3-aminopropyl)piperidin-4-yl)benzyl)-1H-indol-5-yl)-5-methyl-1H-pyrazole-3-carboxamide] | 466 | – | – | – |
| CC(=O)NCCCN1CCC(c2ccc(Cn3ccc4cc(-n5nc(C(N)=O)cc5C)ccc43)cc2)CC1 [Example 9, 1-(1-(4-(1-(3-acetamidopropyl)piperidin-4-yl)benzyl)-1H-indol-5-yl)-5-methyl-1H-pyrazole-3-carboxamide] | 301 | – | – | – |
| Cc1cc(C(N)=O)nn1-c1ccc2c(c1)c(CCCO)cn2Cc1ccc([C@@H]2C[C@@H]3CN(C)C[C@@H]3C2)cc1 [Example 38, 1-(3-(3-hydroxypropyl)-1-(4-((3aR,5r,6aS)-2-methyloctahydrocyclopenta[c]pyrrol-5-yl)benzyl)-1H-indol-5-yl)-5-methyl-1H-pyrazole-3-carboxamide] | 81 | – | – | – |
